Where two headings read alike, the source gives them in different places.
Legend:
[1] = TEM / cryo-TEM imaging of self-assembled nanostructures (dimensions); format: physicochemical; conditions: self-assembled nanotubes in water, 200 μM, n>40
Experimental: About 200 μM stock solutions of corresponding TTs in water were prepared by dissolution of the lyophilized powders. After aging overnight, TEM samples were prepared by depositing 7 μL of the appropriate solution onto a carbon-coated copper grid (Electron Microscopy Services, Hatfield, Pa., USA), wicking away the excess solution with a small piece of filter paper. Next, 7 μL of a 2 wt % uranyl acetate aqueous solution was deposited on the surface for 30 seconds, wicking away the excess solution with filter paper. The grids were then air-dried overnight at room temperature prior to imaging. Bright-field TEM imaging was performed using an FEI Tecnai 12 TWIN Transmission Electron Microscope operated at an acceleration voltage of 100 kV. All TEM images were acquired by a SIS Megaview III wide-angle CCD camera or 16 bit 2K×2K FEI Eagle bottom mount camera.
Cryo-TEM imaging was performed using higher sample concentrations of 800 μM (compared with 200 μM for conventional TEM imaging). Extended imaging times can result in damage to the vitreous ice film caused by the electron beam and so higher concentrations can allow a more rapid visualization that reduces this likelihood. About 6 μL of the appropriate solution was dropped onto a lacey carbon-film-supported TEM copper grid (Electron Microscopy Services, Hatfield, Pa., USA). All the TEM grids used for cryo-TEM imaging were pretreated with plasma air to render the lacey carbon film hydrophilic. A thin film of the sample solution was produced using a Vitrobot with a controlled humidity chamber (FEI). After loading of the sample solution, the lacey carbon grid was blotted using preset parameters and plunged instantly into a liquid ethane reservoir precooled by liquid nitrogen. The vitrified samples were then transferred to a cryo-holder and cryo-transfer stage that was cooled by liquid nitrogen. To prevent sublimation of vitreous water, the cryo-holder temperature was maintained below −170° C. during the imaging process. All images were recorded by a Tecnai 12 microscope with a cryo-holder, and the images were acquired by a 16 bit 2K×2K FEI Eagle bottom mount camera.
Self-Assembly of SAPDs from TT1. To study the self-assembly behavior of the SAPDs, we directly dissolved the lyophilized powders in deionized water at a concentration of 2 mM and neutral pH.

[2] = Zeta potential measurement; format: physicochemical; conditions: 1×-DPBS buffer
Experimental: TT solutions of 200 μM in 1×-DPBS buffer (pH=7.4) were prepared by directly mixing identical volumes of a 400 μM aqueous TT solution and 2×-DPBS buffer (pH=7.4). In some embodiments, solutions at a concentration of 2 mM in PBS buffer (pH=7.4) were prepared and aged overnight prior to zeta potential measurement. TT solutions of 200 μM in 1×-DPBS buffer (pH=5.0) were prepared by mixing identical volumes of a 400 μM aqueous TT solution and 2×-DPBS buffer (pH=5.0), which was pretreated with 6 M HCl. The zeta potential measurements were performed on a Zetasizer Nano ZS90 (Malvern Instruments Ltd., UK). The prepared solutions were loaded in capillary cells and equilibrated for 2 min prior to measurement. The average values and their standard deviations are calculated from three replicate measurements. The zeta potential of the assembled structures was obtained by measuring the electrophoretic movement of the nanostructures under the applied electric field, where the movement velocity is determined by phase analysis light scattering. Variations of the zeta potential value over time were determined by measuring the solutions at different aging time points (1, 2, 4 and 7 days) and are plotted in FIG. 10.

[3] = Gel release of TT 2 nanotube hydrogel; format: physicochemical; conditions: 10 mM in 1×-DPBS, 37° C., over 31 days
Experimental: TT 2 was dissolved in water and hydrogel formation triggered by the addition of 10×-DPBS to give a final TT 2 concentration of 10 mM in 1×-DPBS. 200 μL of the hydrogel was placed at the bottom of centrifuge tube and allowed to re-gel overnight. Three replicate experiments were prepared together and incubated at 37° C. Fresh 1×-DPBS (300 μL) was layered on top of the hydrogel and was refreshed at predetermined time points: 1, 2, 4, 7, 10, 13, 16, 19, 22, 25, 28, and 31 days. The samples were frozen with liquid nitrogen and stored at −30° C. until analysis. The amount of TT 2 in the top DPBS layer was determined by analytical RP-HPLC using the conditions described in the previous paragraph. The cumulative release of TT 2 from its hydrogels was calculated and plotted as a percentage of the total amount of hydrogel. The conjugate was seen to be released almost linearly from the hydrogel with ˜10% of the prodrugs being released over the 31-day period.

[4] = system: U87 MG human brain cancer cells; conditions: 48 h
Experimental: (§1) The human brain cancer cell line U87 MG was a generous gift from Dr. Wirtz (ChemBE, JHU). DMEM (Invitrogen) containing 10% fetal bovine serum (FBS, Invitrogen) and 1% antibiotics (Invitrogen) was used for the culture of the U87 MG cells. Cancer cells were incubated at 37° C. in a humidified incubator (Oasis, Caron, Marietta, Ohio, USA) with an atmosphere of 5% CO2. […] U87 MG cells were seeded onto 96-well plates (5000 cells/well) and allowed to attach overnight. […] The stock solutions were then diluted with fresh medium to achieve final CPT concentrations of 0.1, 1, 10, 100, 500, 1000, 5000 and 10000 nM. After dilution, the nanotube-containing media were used to incubate cells immediately. Medium containing the same concentration of free CPT ranging from 0.1 to 10000 nM was also used to incubate the cells, with non-treated cells (solvent only) as the control group. In addition, irinotecan at the concentration of 0.1, 1, 5, 10, 50, 100 and 500 μM was employed as a second control. After 48 h incubation, the cell viability was evaluated using the SRB method according to the manufacturer's protocols (TOX-6, Sigma, St. Louis, Mo.).

[5] = system: U87 MG human glioblastoma; assay: Antitumor efficacy study for local delivery (intratumoral TT 2 hydrogel); format: in vivo, athymic nude mice; conditions: 10 mM hydrogel, 30 μL intratumoral
Experimental: The hydrogel formation of TT 2 in vivo was investigated through subcutaneous injection of a TT 2 gel. […] The tumor model used in local delivery is the same U87 MG human glioblastoma line used in the systemic delivery study described above. Mice were randomly selected (n=7) and treated with TT 2 hydrogel at a fixed dose (10 mM, 30 μL) through intratumoral injection. Tumor volumes and body weights were measured and recorded every other day. The tumor volume was determined by measuring the tumor in two dimensions with calipers and using the formula “tumor volume=(length×width^2)/2”. Each animal was euthanized once the tumor […] reached the predetermined end point size of 2000 mm^3.
The antitumor efficacy of TT 2 hydrogel was then evaluated in a subcutaneous U87 MG xenograft model via intratumoral injection of a 10 mM TT 2 SP hydrogel (30 μL). All seven mice studied experienced tumor regression with a minimum mean tumor volume of 36 mm^3 at day 25 and survived for more than 45 days (FIG. 3K).

HT-29 cells = system: HT-29 cells
Excerpt: Antitumor efficacy study of SAPDs at the same dose on a HT-29 tumor model. […] When the averaged tumor size reached 75-95 mm^3, mice were randomly divided into six groups. […] The tumor volumes and body weights were monitored and recorded every two or three days. The tumor volume was estimated by measuring the length and width with calipers and using the equation “tumor volume=(length×width^2)/2”. Mice were euthanized once the tumor volume reached 1000 mm^3.

[6] = system: U87 MG human brain cancer cells; assay: cells; conditions: U-87 MG, 48 h
Experimental: as §1

[7] = Biodistribution study in U87 MG tumor-bearing mice; format: in vivo, nude mice; conditions: nude, mouse, in vivo, 4.5 mg/kg, 4.5 mg/kg i.v., 1 hour after injection
Experimental: Mice bearing subcutaneous tumors were established by injecting 100 μL of a U87 MG suspension in serum-free medium (2×10^6 cells) into the right flank of the mice. When the tumor reached a size of −200 mm^3, the mice were randomly grouped and received one of the following 3 treatments via intravenous injection (n=18 for each group): free CPT (4.5 mg/kg), TT 1 (4.5 mg/kg), and TT 1 (15 mg/kg). Three mice from each group were euthanized at pre-determined time points (1, 2, 4, 8, 12, and 24 h). Plasma, major organs, and tumors were collected and stored at −80° C. for further analysis. To determine the amount of free CPT and TT 1 in the samples, 100 mg tumors were mixed with 900 μL acetonitrile (containing 0.1% TFA) and then homogenized using Precellys Evolution Super Homogenizer (Bertin Technologies, France) for 3×40 s (5,600 shakes/min). The resulting suspensions were centrifuged and the supernatants were collected. For plasma, 50 μL of sample was mixed with 450 μL acetonitrile (containing 0.1% TFA) and sonicated for 1 min. The supernatants were collected using centrifugation. All samples were filtered through a 0.22 μm membrane before analysis by a UPLC system (Waters ACQuity™ Ultra Performance LC) equipped with a reverse-phase column (ACQuity UPLC@BEH, C18, 1.7 μm 2.1×150 mm) and a fluorescence detector (ACQuity FLR, Ex/Em=362/430 nm). The column was flushed with a mixture of water (0.1% TFA) and acetonitrile (0.1% TFA) at 0.3 mL/min with the following gradient: 5% acetonitrile (0-1 min), 5-95% acetonitrile (1-5 min), 95% acetonitrile (5-8 min), 95-5% acetonitrile (8-9 min), and 5% acetonitrile (9-10 min). Peaks with retention times of 5.4 min (free CPT) and 6.9 min (TT 1) were monitored.

[8] = Tolerability of free CPT in mice; format: in vivo
Experimental: Due to its poor water solubility, free CPT is often given in a formulation containing a mixture of DMSO/ethanol/PEG-400/water at a volumetric ratio of 1:1:2:1 (24). […] We eventually identified an intraperitoneal injection of 4.5 mg/kg CPT to be a tolerable dosage for animal studies. In contrast, the MTD of TT 1 SPs in healthy athymic nude mice, identified in a dose escalation study through systemic administration, is within the range of 24-30 mg/kg (CPT equivalent) (FIG. 3D and FIG. 13). […] Four out of five mice survived for up to 37 d (9 mg/kg) and 43 d (15 mg/kg).

[9] = system: human glioblastoma U87 MG cells; assay: Antitumor efficacy study for systemic delivery, subcutaneous U87 MG tumor; format: in vivo, athymic nude mice; conditions: controls: free CPT 4.5 mg/kg i.p.; irinotecan 60 mg/kg i.p.
Experimental: A total of 2×10^6 human glioblastoma U87 MG cells were subcutaneously injected into the right shoulder of athymic nude mice (8-9 weeks old). The mice were used for the efficacy study after three to four weeks when the tumor had reached about 190-250 mm^3 in size. […]. Water insoluble free CPT was dissolved/suspended in a mixture of DMSO/ethanol/PEG-400/water (1:1:2:1). CPT (4.5 mg/kg) and irinotecan (60 mg/kg) were administered by intraperitoneal injection, while freshly prepared TT 1 solutions of various doses were administered intravenously by tail vein injection every 4 days for a total of three doses (days 1, 5, and 9). […]. Tumor volumes were measured and recorded every other day. The body weights were measured and recorded every day or every other day. The tumor volume was determined by measuring the tumor in two dimensions with calipers and using the formula “tumor volume=(length×width^2)/2”. Each animal was euthanized once the tumor volume reached the predetermined end point size of 2000 mm^3.

[10] = in vivo; cited from earlier work

SMILES	Diameters measured by conventional TEM [1] [nm]	ζ-potential at pH 7.4 versus pH 5.0 [2]	ζ-Potential ([2]; pH 5.0, 200 μM) [mV]	ζ-Potential ([2]; pH 7.4, 200 μM) [mV]	IC50 [6] [nM]	median survival [9] [days]	other results
CC[C@]1(OC(=O)OCCSSC[C@@H](NC(C)=O)C(=O)N[C@@H](CCCCNC(=O)[C@@H](CSSCCOC(=O)O[C@]2(CC)C(=O)OCc3c2cc2n(c3=O)Cc3cc4ccccc4nc3-2)NC(C)=O)C(=O)N[C@@H](CCC(=O)O)C(=O)N[C@@H](CCC(=O)O)C(N)=O)C(=O)OCc2c1cc1n(c2=O)Cc2cc3ccccc3nc2-1 [TT 3]	8.4 ± 0.9	more negative ζ-potentials at pH 7.4 than 5.0					
CC[C@]1(OC(=O)OCCSSC[C@@H](NC(C)=O)C(=O)N[C@@H](CCCCNC(=O)[C@@H](CSSCCOC(=O)O[C@]2(CC)C(=O)OCc3c2cc2n(c3=O)Cc3cc4ccccc4nc3-2)NC(C)=O)C(=O)N[C@@H](CCCCN)C(=O)N[C@@H](CCCCN)C(N)=O)C(=O)OCc2c1cc1n(c2=O)Cc2cc3ccccc3nc2-1 [TT 2]	8.1 ± 0.6		31.8	22.1			cumulative release of TT 2 from hydrogel [3]: ~10%; IC50 [4]: 123 nM; mice with complete tumor regression [5]: Four out of seven; survival to end point of tumor-free mice [5]: around 140 d; minimum mean tumor volume ([5]; day 25, n=7): 36 mm^3; survival of all treated mice ([5]; n=7): more than 45 days
CC[C@@]1(O)C(=O)OCc2c1cc1n(c2=O)Cc2cc3ccccc3nc2-1 [CPT, Camptothecin, reference compound]					62	17	treatment outcome (deaths) (HT-29 cells; free CPT 9 mg/kg i.p., n=5): death of all five mice after the second dose; concentration at 1 h ([7]; read-out: drug concentration in plasma): 37 ng/g; concentration at 1 h ([7]; read-out: drug concentration in tumor): 92 ng/g; outcome of intravenous administration ([8]; 9 mg/kg i.v., DMSO/ethanol/PEG-400/water formulation): immediate death; tolerable dosage ([8]; intraperitoneal injection): 4.5 mg/kg; MTD ([8]; mouse, in vivo, intraperitoneal): ~5 mg/kg
CC[C@]1(OC(=O)OCCSSC[C@@H](NC(C)=O)C(=O)N[C@@H](CCCCNC(=O)[C@@H](CSSCCOC(=O)O[C@]2(CC)C(=O)OCc3c2cc2n(c3=O)Cc3cc4ccccc4nc3-2)NC(C)=O)C(=O)N[C@@H](CCCCN)C(=O)N[C@@H](CCC(=O)O)C(N)=O)C(=O)OCc2c1cc1n(c2=O)Cc2cc3ccccc3nc2-1 [TT 4]	8.3 ± 0.9		−2.3	−18.8			
CCc1c2c(nc3ccc(OC(=O)N4CCC(N5CCCCC5)CC4)cc13)-c1cc3c(c(=O)n1C2)COC(=O)[C@]3(O)CC [irinotecan, reference compound]					6500	27	median survival (HT-29 cells; SAPDs 10 mg/kg i.v. days 1, 5, 9, 13, irinotecan 100 mg/kg i.p. days 1, 8, 15): 51 days; reported MTD [10]: 100 mg/kg
CC[C@]1(OC(=O)OCCSSC[C@@H](NC(C)=O)C(=O)N[C@@H](CCCCNC(=O)[C@@H](CSSCCOC(=O)O[C@]2(CC)C(=O)OCc3c2cc2n(c3=O)Cc3cc4ccccc4nc3-2)NC(C)=O)C(=O)N[C@H](CCCCNC(=O)CN2CCN(CC(=O)O)CCN(CC(=O)O)CCN(CC(=O)O)CC2)C(N)=O)C(=O)OCc2c1cc1n(c2=O)Cc2cc3ccccc3nc2-1 [TT 5]	8.4 ± 0.9	more negative ζ-potentials at pH 7.4 than 5.0					
